The values below come from ChEMBL document CHEMBL1150884, “Antifungal amide from leaves of Piper hispidum” (1998).

Molecules are shown by their SMILES.

The test system of the assay is Cladosporium sphaerospermum. Put plainly: Antifungal activity against Cladosporium sphaerospermum after 72 hrs in dark by TLC assay. Format: functional.

Turning to `O=C(/C=C\C=C/CCc1ccc2c(c1)OCO2)N1CCCC1`, the MIC was 8 µg.
